The source of these data is patent US20210238162A1, “CHEMICAL COMPOUNDS” (GlaxoSmithKline Intellectual Property Development Limited, priority 2015, published 2021).

Structures can show the parent of a compound that is named as a salt. Where two headings read alike, the source gives them in different places. Bounds are passed on as bounds.

This experiment has as its target T1, haematopoietic prostaglandin D synthase (H-PGDS) (Homo sapiens, UniProt O60760).
T1 construct: Full length human H-PGDS cDNA (Invitrogen Ultimate ORF IOH13026) was amplified by PCR; made in house; host or cells: E. coli BL21 (DE3*), vector pET22b+
Kind of experiment: H-PGDS RapidFire High Throughput Mass Spectrometry Assay. It counts as biochemical. Here is the method: The H-PGDS RapidFire™ mass spectrometric assay monitors conversion of prostaglandin H2 (PGH2) to prostaglandin D2 (PGD2) by haematopoietic prostaglandin D synthase (H-PGDS). In the assay format described here, the substrate (PGH2) is formed in situ by the action of cyclooxygenase-2 on arachidonic acid. This first step is set up to be fast, and generates a burst of PGH2 at ˜10 μM. The PGH2 is then further converted to PGD2 by the H-PGDS enzyme. […] Plates are then read on the RapidFire™ high throughput solid phase extraction system (Agilent) which incorporates a solid phase extraction step coupled to a triple quadrupole mass spectrometer (AB SCIEX). Relative levels of PGD2 and PGF2α, which acts as a surrogate for substrate, are measured and a percent conversion calculated.
Full length human H-PGDS cDNA (Invitrogen Ultimate ORF IOH13026) was amplified by PCR with the addition of a 5′ 6-His tag and TEV protease cleavage site. The PCR product was digested with Ndel and Xhol and ligated into pET22b+ (Merck Novagen®). Expression was carried out in E. coli strain BL21 (DE3*) using auto-induction Overnight Express™ Instant TB medium (Merck Novagen®) supplemented with 1% glycerol. The culture was first grown at 37° C. and the temperature was reduced to 25° C. when OD600 reached 2.0. Cells were harvested by centrifugation after a further 18 hr. 10 g of E. coli cell pellet was suspended to a total volume of 80 mL in lysis buffer (20 mM Tris-Cl pH 7.5, 300 mM NaCl, 20 mM imidazole, 5 mM β-mercaptoethanol, 10% glycerol). 1 mg/mL protease inhibitors (Protease Inhibitor Cocktail Set Ill, Merck Calbiochem®) and 1 mg/mL lysozyme were added to the cell suspension. The suspension was then sonicated for 5 min (UltraSonic Processor VCX 750, Cole-Parmer Instrument Co.) with a micro probe (50% amplitude, 10 sec on/off) and then centrifuged at 100,000 g for 90 min (at 4° C.). The supernatant was loaded onto a Ni-NTA HiTrap column (5 mL, GE Heathcare, pre-equilibrated in lysis buffer). The column was washed with 10 column volumes of lysis buffer and eluted with lysis buffer containing 500 mM imidazole. The pooled protein peak fractions were concentrated using a 10 kDa centrifugal filter at 3500 g and 4° C. (Amicon Ultra-15 centrifugal filter unit with Ultracel-10 membrane from Millipore). Further purification of the concentrated protein was carried out using gel filtration chromatography on a HiLoad 26/600 Superdex 75 preparative grade column (GE Healthcare Life Sciences) using 50 mM Tris pH 7.5, 50 mM NaCl, 1 mM dithiothreitol, 1 mM MgCl2. Fractions containing the protein were pooled, concentrated as described above, and stored at −80° C.
The full length human COX-2 gene (accession number L15326) was amplified by PCR to generate an EcoRI-HindIII fragment containing an in-frame FLAG tag. This was subcloned into pFastBac 1 (Invitrogen). The COX2 FLAG plasmid was recombined into the baculovirus genome according to the BAC-to-BAC protocol described by Invitrogen. Transfection into Spodoptera frugiperda (Sf9) insect cells was performed using Cellfectin (Invitrogen), according to the manufacturer's protocol. […] Recombinant virus was added at a Multiplicity of Infection (MOI) of 5 and the culture was allowed to continue for 3 days. Cells were harvested using a continuous feed centrifuge run at 2500 g at a rate of approximately 2 L/min with cooling. The resultant cell slurry was re-centrifuged in pots (2500 g, 20 min, 4° C.) and the cell paste was stored at −80° C. […] The suspension was sonicated in 500 mL batches for 8×5 seconds at 10 u amplitude with the medium tip of an MSE probe sonicator and subsequently incubated at 4° C. for 90 min with gentle stirring. The lysate was centrifuged at 12000 rpm for 45 min at 4° C. in a Sorvall SLA1500 rotor. The supernatant (1400 mL) was added to 420 mL of 20 mM Tris-Cl pH 7.4, 150 mM NaCl, 0.1 mM EDTA to reduce the concentration of n-octyl-β-D-glucopyranoside to 1% w/v.

[1] abbreviates: H-PGDS RapidFire MS assay, mean pIC50, read-out: Potency Range (mean pIC50) (converted).
[2] abbreviates: in at least one experimental run, read-out: H-PGDS pIC50 value (converted).

T1 sequence (O60760 whole entry): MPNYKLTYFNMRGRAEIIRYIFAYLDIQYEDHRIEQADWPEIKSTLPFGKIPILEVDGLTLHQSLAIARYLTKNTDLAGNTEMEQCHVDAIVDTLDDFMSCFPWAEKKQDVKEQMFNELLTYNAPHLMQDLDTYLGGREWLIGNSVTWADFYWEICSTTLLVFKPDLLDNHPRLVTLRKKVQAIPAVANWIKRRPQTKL

For `COc1ccc2cc(C(=O)Nc3nccs3)cnc2c1F` [Example 47, 8-Fluoro-7-methoxy-N-(thiazol-2-yl)quinoline-3-carboxamide hydrochloride], the IC50 under setting [1] was 10 to 79.4 nM.

On to `O=C(N[C@H]1C[C@H](NCC(F)(F)F)C1)c1cnc2cc(OC(F)F)c(F)cc2c1` [Example 59, 7-(Difluoromethoxy)-6-fluoro-N-(trans-3-((2,2,2-trifluoroethyl)amino)cyclobutyl)quinoline-3-carboxamide], for which the IC50 is 10 to 79.4 nM under setting [1] and 50.1 nM under setting [2].

Regarding `CC(C)(O)CO[C@H]1CC[C@H](NC(=O)c2cnc3cc(OC(F)F)ccc3c2)CC1` [Example 12, 7-(Difluoromethoxy)-N-(trans-4-(2-hydroxy-2-methylpropoxy)cyclohexyl)quinoline-3-carboxamide], the IC50 under setting [1] is 10 to 79.4 nM.

Regarding `CC1(C)CC(NC(=O)c2cnc3cc(OC(F)F)c(Cl)cc3c2)CCO1` (stereo not drawn) [Example 150, 6-Chloro-7-(difluoromethoxy)-N-(2,2-dimethyltetrahydro-2H-pyran-4-yl)quinoline-3-carboxamide], the IC50 was 10 to 79.4 nM under setting [1] and 39.8 nM under setting [2].

For the molecule `C[C@H]1CCN1c1cc2ncc(C(=O)N[C@H]3CC[C@H](C(C)(C)O)CC3)cc2cc1F` [Example 174, 6-Fluoro-N-(trans-4-(2-hydroxypropan-2-yl)cyclohexyl)-7-((S)-2-methylazetidin-1-yl)quinoline-3-carboxamide], the IC50 under setting [1] was 10 to 79.4 nM.

Consider `COc1cc2ncc(C(=O)NC3CCN(c4nnnn4C)CC3)cc2cc1C#N` [Example 114, 6-Cyano-7-methoxy-N-(1-(1-methyl-1H-tetrazol-5-yl)piperidin-4-yl)quinoline-3-carboxamide], for which the IC50 under setting [1] is 100 to 1000 nM.

For the molecule `CC(N[C@H]1CC[C@H](NC(=O)c2cnc3cc(OC(F)F)c(Br)cc3c2)CC1)C(F)F` (mixture of isomers) [Example 156, 6-Bromo-7-(difluoromethoxy)-N-(trans-4-((1,1-difluoropropan-2-yl)amino)cyclohexyl)quinoline-3-carboxamide], under setting [1], the IC50 was < 10 nM.

For the molecule `O=C(N[C@H]1CC[C@H](C2(O)CC2)CC1)c1cnc2cc(OC(F)F)c(Cl)cc2c1` [Example 121, 6-Chloro-7-(difluoromethoxy)-N-(trans-4-(1-hydroxycyclopropyl)cyclohexyl)quinoline-3-carboxamide], the IC50 under setting [1] is < 10 nM.

With `O=C(NC1CCN(CC(F)(F)F)CC1)c1cnc2cc(OC(F)F)c(F)cc2c1` [Example 58, 7-(Difluoromethoxy)-6-fluoro-N-(1-(2,2,2-trifluoroethyl)piperidin-4-yl)quinoline-3-carboxamide], the IC50 under setting [1] is 10 to 79.4 nM.

As to `N#Cc1cc2cc(C(=O)NC3CC(=O)Nc4ccccc43)cnc2cc1C1CC1` (stereo not drawn) [Example 26, 6-Cyano-7-cyclopropyl-N-(2-oxo-1,2,3,4-tetrahydroquinolin-4-yl)quinoline-3-carboxamide], the IC50 under setting [1] was < 10 nM.

For the molecule `CC(C)C(O)CO[C@H]1CC[C@H](NC(=O)c2cnc3cc(OC(F)F)c(Cl)cc3c2)CC1` (stereo partly drawn) [Example 127, 6-Chloro-7-(difluoromethoxy)-N-(trans-4-(2-hydroxy-3-methylbutoxy)cyclohexyl)quinoline-3-carboxamide], the IC50 under setting [1] is < 10 nM.

On to `N#C[C@H]1CC[C@H](NC(=O)c2cnc3cc(OC(F)F)c(F)cc3c2)CC1` [Example 87, N-(trans-4-Cyanocyclohexyl)-7-(difluoromethoxy)-6-fluoroquinoline-3-carboxamide], for which the IC50 under setting [1] was 10 to 79.4 nM.

With `CC[C@]1(O)CC[C@H](NC(=O)c2cnc3cc(OC(F)F)c(F)cc3c2)CC1` [Example 81, 7-(Difluoromethoxy)-N-((1r,4r)-4-ethyl-4-hydroxycyclohexyl)-6-fluoroquinoline-3-carboxamide], the IC50 under setting [1] was 10 to 79.4 nM.

For the molecule `CC(C)(O)[C@H]1CC[C@H](NC(=O)c2cnc3cc4c(cc3c2)OCO4)CC1` [Example 195, N-(trans-4-(2-Hydroxypropan-2-yl)cyclohexyl)-[1,3]dioxolo[4,5-q]quinoline-7-carboxamide], the IC50 under setting [1] is 100 to 1000 nM.

In the case of `O=C(N[C@H]1CC[C@H](N[C@@H](CO)C(F)(F)F)CC1)c1cnc2cc(OC(F)F)c(F)cc2c1` [Example 85, 7-(Difluoromethoxy)-6-fluoro-N-(trans-4-(((S)-1,1,1-trifluoro-3-hydroxypropan-2-yl)amino)cyclohexyl)quinoline-3-carboxamide], under setting [1], the IC50 was 10 to 79.4 nM.

Regarding `O=C(N[C@H]1CCCNC1=O)c1cnc2cc(C3CC3)c(Cl)cc2c1` [Example 36, (S)-6-Chloro-7-cyclopropyl-N-(2-oxopiperidin-3-yl)quinoline-3-carboxamide hydrochloride], the IC50 is 10 to 79.4 nM under setting [1] and 15.8 nM under setting [2].

Take `O=C(N[C@H]1CC[C@H](C(=O)N2CCOCC2)CC1)c1cnc2cc(OC(F)F)c(Cl)cc2c1` [Example 210, 6-Chloro-7-(difluoromethoxy)-N-((trans)-4-(morpholine-4-carbonyl)cyclohexyl)quinoline-3-carboxamide]: the IC50 under setting [1] is < 10 nM.

On to `CN(C)C(=O)[C@@H]1CC[C@@H](NC(=O)c2cnc3cc(OC(F)F)c(Cl)cc3c2)CO1` (racemic) [Example 126, Racemic 6-Chloro-7-(difluoromethoxy)-N-((3r,6s)-6-(dimethylcarbamoyl)tetrahydro-2H-pyran-3-yl)quinoline-3-carboxamide], for which the IC50 under setting [1] was 10 to 79.4 nM.

`C#CCNC(=O)CO[C@H]1CC[C@H](NC(=O)c2cnc3cc(OC(F)F)c(F)cc3c2)CC1` [Example 102, 7-(Difluoromethoxy)-6-fluoro-N-(trans-4-(2-oxo-2-(prop-2-yn-1-ylamino)ethoxy)cyclohexyl)quinoline-3-carboxamide]: under setting [1], the IC50 was 10 to 79.4 nM.

In the case of `O=C(N[C@H]1CC[C@@](O)(C(F)F)CC1)c1cnc2cc(OC(F)F)c(Cl)cc2c1` [Example 234, 6-Chloro-7-(difluoromethoxy)-N-((1r,4r)-4-(difluoromethyl)-4-hydroxycyclohexyl)quinoline-3-carboxamide], the IC50 under setting [1] is 10 to 79.4 nM.

For `CC(C)(O)[C@H]1CC[C@H](NC(=O)c2cnc3cc([S+]([O-])C(F)F)c(F)cc3c2)CC1` (stereo partly drawn) [Example 185, 7-((Difluoromethyl)sulfinyl)-6-fluoro-N-(trans-4-(2-hydroxypropan-2-yl)cyclohexyl)quinoline-3-carboxamide], the IC50 under setting [1] was 10 to 79.4 nM.

With `O=C(NC1CCNC1=O)c1cnc2cc(OC(F)F)c(Cl)cc2c1` (stereo in doubt) [Example 117, (S)-6-Chloro-7-(difluoromethoxy)-N-(2-oxopyrrolidin-3-yl)quinoline-3-carboxamide, trifluoroacetate], under setting [1], the IC50 was < 10 nM.

For the molecule `CC(C)(O)C(=O)N1CCN(NC(=O)c2cnc3cc(OC(F)F)c(Cl)cc3c2)CC1` [Example 224, 6-Chloro-7-(difluoromethoxy)-N-(4-(2-hydroxy-2-methylpropanoyl)piperazin-1-yl)quinoline-3-carboxamide], the IC50 under setting [1] was 10 to 79.4 nM.

With `O=C1CC(NC(=O)c2cnc3cc(OC(F)F)ccc3c2)c2ccccc2N1` (stereo not drawn) [Example 9, 7-(Difluoromethoxy)-N-(2-oxo-1,2,3,4-tetrahydroquinolin-4-yl)quinoline-3-carboxamide], the IC50 under setting [1] was 10 to 79.4 nM.
